Activity and IC50 data for one compound are collected here from ChEMBL document CHEMBL3259601, “Synthesis of novel 1,2,3-triazole substituted-N-alkyl/aryl nitrone derivatives, their anti-inflammatory and anticancer activity” (Eur J Med Chem, 2014).

The test system of experiment [1] is PC-3. The experiment is described as follows: Induction of apoptosis in human PC3 cells assessed as activation of caspase-3 using AFC conjugated Ac-DEVD as substrate measured per mg of protein at 2 uM after 48 hrs by fluorescence assay (reference value: 2642.4 +/- 37.5 FU/min). The class given is functional.
The subject of experiment [2] is PC-3. Nature of the experiment: Induction of apoptosis in human PC3 cells assessed as activation of caspase-3 using AFC conjugated Ac-DEVD as substrate measured per mg of protein at 1 uM after 12 hrs by fluorescence assay (reference value: 1055.6 +/- 108.2 FU/min). It is filed as functional.
The test system of experiment [3] is PC-3. Nature of the experiment: Induction of apoptosis in human PC3 cells assessed as activation of caspase-3 using AFC conjugated Ac-DEVD as substrate measured per mg of protein at 2 uM after 36 hrs by fluorescence assay (reference value: 2192.3 +/- 115.9 FU/min). The class given is functional.
For experiment [4], the system named is PC-3. The experiment is described as follows: Induction of apoptosis in human PC3 cells assessed as activation of caspase-3 using AFC conjugated Ac-DEVD as substrate measured per mg of protein at 1 uM after 24 hrs by fluorescence assay (reference value: 2115.3 +/- 83.2 FU/min). It is filed as functional.
Experiment [5] deals with PC-3. The experiment is described as follows: Induction of apoptosis in human PC3 cells assessed as activation of caspase-3 using AFC conjugated Ac-DEVD as substrate measured per mg of protein at 1 uM after 48 hrs by fluorescence assay (reference value: 2642.4 +/- 37.5 FU/min). The class given is functional.
The subject of experiment [6] is PC-3. The experiment is described as follows: Induction of apoptosis in human PC3 cells assessed as activation of caspase-3 using AFC conjugated Ac-DEVD as substrate measured per mg of protein measured per mg of protein at 2 uM after 24 hrs by fluorescence assay (reference value: 2115.3 +/- 83.2 FU/min). The class given is functional.
For experiment [7], the system named is PC-3. Nature of the experiment: Induction of apoptosis in human PC3 cells assessed as activation of caspase-3 using AFC conjugated Ac-DEVD as substrate measured per mg of protein at 2 uM after 12 hrs by fluorescence assay (reference value: 1055.6 +/- 108.2 FU/min). It is filed as functional.
Experiment [8] relates to PC-3. The experiment is described as follows: Induction of apoptosis in human PC3 cells assessed as activation of caspase-3 using AFC conjugated Ac-DEVD as substrate measured per mg of protein at 1 uM after 36 hrs by fluorescence assay (reference value: 2192.3 +/- 115.9 FU/min). It is filed as functional.
Experiment [9] concerns PC-3. The experiment is described as follows: Cytotoxicity against human PC3 cells assessed as growth inhibition after 24 hrs by MTT assay. It is filed as functional, cell-based. The conditions noted are these: PC-3, 24 h.

With `COc1cccc2c1C(=O)c1c(O)c3c(c(O)c1C2=O)C[C@@](O)(C(=O)CO)C[C@@H]3O[C@H]1C[C@H](N)[C@H](O)[C@H](C)O1` [DOXORUBICIN], the Activity in the experiment on PC-3 [1] is 7240.4 FU/min; in the experiment with PC-3 [2], 3033.7 FU/min; with PC-3 [3] it was 4994.1 FU/min; with PC-3 [4], 3791.8 FU/min; with PC-3 [5] it was 6690.3 FU/min; with PC-3 [6], 4007.5 FU/min. The Activity with PC-3 [7] was determined as 3331.1 FU/min; with PC-3 [8] it was 4794.2 FU/min. In addition, the IC50 with PC-3 [9] turned out to be 0.6 µM.

By IC50 is commonly meant the concentration needed to halve the response being measured.
